Assay results reported in patent US6291657A (priority 1993, dated 2001).
Entries after “also recorded” stand apart in the source; their conditions may differ. Where two headings read alike, the source gives them in different places.

Columns and labels:
[1] = tested on: Glc-Cer accumulation in WEHI-3B murine macrophage cells; assay: In vitro Gaucher's disease model: CBE induced glycolipid storage in WEHI-3B cells, 1D-TLC; format: cell-based; settings: for prevention of glycolipid storage in in vitro Gaucher's disease model (in words): CBE
Description: In this model, the murine macrophage cell line WEHI-3B was cultured in the presence of an irreversible glucocerebrosidase inhibitor, conduritol β epoxide (CBE), to mimic the inherited disorder found in Gaucher's disease. WEHI-3B cells are well-known, widely distributed and readily available murine macrophage cells. They are described in Cancer Res. 37, 546-550 (1977), and are readily available from the American Type Culture Collection, Rockville, Md, under accession number ATCC TIB 68. The compounds of the invention prevent lysosomal glycolipid storage which is useful for the management of Gaucher's disease and other glycolipid storage disorders as illustrated hereinafter in Table 3. Gaucher's disease is an autosomal recessive disorder characterized by an impaired ability to degrade glucocerebroside (glucosyl ceramide, Glc-Cer) due to mutations in the gene encoding β-glucocerebrosidase (β-D-glucosyl-N-acylsphingosine glucohydrolase, EC 3.2.1.45). This defect results in the lysosomal accumulation of Glc-Cer in cells of the macrophage-monocyte system [Barranger and Ginns, in The Metabolic Basis of Inherited Diseases, ed. Scriver et al., pp. 1677-1698, McGraw-Hill, New York, (1989); Beutler, Science 256, 794-799 (1992)]. By slowing the rate of glycolipid synthesis, the impaired catabolism of Glc-Cer can be offset, thereby leading to the maintenance of a balanced level of Glc-Cer.
FIGS. 5 and 6 show the analysis of NB-DNJ and NB-DGJ in an in vitro Gaucher's disease model.
The in vitro Gaucher's disease model was prepared as follows: WEHI-3B cells (American Type Culture Collection, Rockville, Md., U.S.A.) were maintained in logarithmic phase growth for 14 days in RPMI-1640 medium, 10% FCS, in the presence or absence of 50 μM conduritol β epoxide (CBE, Toronto Research Chemicals, Downsview, Canada) with or without NB-DNJ or NB-DGJ. Cells were passaged every 3 days and compound concentrations maintained throughout. Equal cell numbers (5×10^6) were harvested, extracted in 1 ml chloroform: methanol (2:1 v/v) overnight at 4° C., the extracts centrifuged, the chloroform:methanol extract retained and the pellet re-extracted as above for 2 hr. at room temperature. Pooled extracts were dried under nitrogen, re-dissolved in 10 μl chloroform:methanol (2:1 v/v) and separated by 1D-TLC in chloroform:methanol:water […]. Plates were air dried and visualized using α-naphthol (1% w/v in methanol) followed by 50% (v/v) sulphuric acid.

[2] = tested on: glycolipid biosynthesis in HL-60 cells; assay: Inhibition of glycolipid biosynthesis in HL-60 cells, [14C]-palmitic acid labelling, 1D-TLC; format: cell-based, human; settings: for minimal effective concentration: Homo sapiens;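 on all read-outs here: cells cultured 24 h with or without test compound, total cellular lipids resolved by one-dimensional TLC and detected by autoradiography, inhibition shown as missing Glc-Cer and gangliosides versus untreated cells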

CCCCN1C[C@H](O)[C@@H](O)[C@@H](O)[C@H]1CO [NB-DGJ, N-butyl deoxygalactonojirimycin]
prevention of glycolipid storage in in vitro Gaucher's disease model (in words) [1]: as effective as NB-DNJ
prevention of glycolipid storage in in vitro Gaucher's disease model (in words) ([1]; listed as N-butyl DGJ): offset glucoceramide accumulation
minimal effective concentration ([1]; Mus musculus, WEHI3B, 336 h, 50 μM CBE, 14 days (FIG. 5), read-out: dose range preventing CBE induced glycolipid storage): 5 to 50 µM
lipid species whose biosynthesis was inhibited ([2]; HL-60, 500 μM, 1D-TLC): inhibited the biosynthesis of Glc-Cer, gangliosides and an unknown lipid species
inhibition of glycolipid biosynthesis ([2]; HL-60, 500 μM, 1D-TLC (FIG. 1)): specifically inhibited glycolipid biosynthesis
effect of N-alkyl chain length on inhibition of glycolipid biosynthesis (loss of detectable Glc-Cer) ([2]; HL-60, 0.5 mM, 1D-TLC (FIG. 4), listed as N-butyl DGJ): completely prevented glycolipid biosynthesis; also recorded: completely inhibited glycolipid biosynthesis
minimal effective concentration ([2]; HL-60, relatively low concentration, read-out: concentration inhibitory of glycolipid biosynthesis): ~50 µM
minimal effective concentration ([2]; HL-60, 1D-TLC (FIG. 3), partial inhibition, read-out: concentrations as low as which partial inhibition occurred): 0.5 to 5 µM
